The source made the active and inactive calls. The rule behind the calls is not given here.
Tested on: HeLa
Assay: Cytotoxicity against human HeLa cells
Type: functional

For `C[C@@]12C[C@H]3OC(=O)[C@@H]1CO[C@@]14O[C@]5([C@H]2C1=O)[C@@](O)(CC[C@H]1[C@H]4C[C@@H](O)[C@@]2(O)CC=CC(=O)[C@]12C)C(=O)O[C@@]35C`, the ID50 was “inactive”.

Reference: ChEMBL document CHEMBL1150087, “Structural Revision of Physalin H Isolated from Physalis angulata” (1995)
